From publication PMC10922772 (ACS infectious diseases, 2024)
“And” between values parts separate entries of the source, which are not always exact repeats. Equal entries are not always repeated.

Target: SARS-CoV-2 Mpro (Severe acute respiratory syndrome coronavirus 2, UniProt P0DTD1)
Experiment: biochemical
Settings: for IC50: IC50, enzyme 100 nM, substrate 20 μM, 10 min preincubation, pH 6.5; for fold less active than the other (more active) diastereomer: between the two diastereomers of the same compound; for inhibition at 20 µM: read-out: % inhibition at 20 μM

Row | Structure (SMILES) | IC50 | fold less active than the other (more active) diastereomer | inhibition at 20 µM [%]
1 | CC(C)(C)c1ccc(N(C(=O)C2CO2)C(C(=O)NC2CCCCC2)c2cccnc2)cc1 [(R, R)- and (S, S)-30, N-(4-(tert-Butyl)phenyl)-N-(2-(cyclohexylamino)-2-oxo-1-(pyridin-3-yl)ethyl)oxirane-2-carboxamide] | 9.9 ± 1.6 µM | 13 × | 
2 | CC(C)(C)NC(=O)C(c1cccnc1)N(C(=O)C1CO1)c1ccc(C(C)(C)C)cc1 [(R, R)- and (S, S)-38, N-(4-(tert-Butyl)phenyl)-N-(2-(tert-butylamino)-2-oxo-1-(pyridin-3-yl)ethyl)oxirane-2-carboxamide] |  |  | 21
3 | CC(C)(C)c1ccc(N(C(=O)C2CO2)C(C(=O)NCc2ccccc2)c2cccnc2)cc1 [(R, R)- and (S, S)-42, N-(2-(Benzylamino)-2-oxo-1-(pyridin-3-yl)ethyl)-N-(4-(tert-butyl)phenyl)oxirane-2-carboxamide] |  |  | 45
4 | CC1OC1C(=O)N(c1ccc(C(C)(C)C)cc1)C(C(=O)NC1CCCCC1)c1cccnc1 [(R, R, S)- and (S, S, R)-35, N-(4-(tert-Butyl)phenyl)-N-(2-(cyclohexylamino)-2-oxo-1-(pyridin-3-yl)ethyl)-3-methyloxirane-2-carboxamide] |  | ~ 10 × | 42
5 | CC1OC1C(=O)N(c1ccc(C(C)(C)C)cc1)C(C(=O)NC(C)(C)C)c1cccnc1 [(R, R, S)- and (S, S, R)-39, N-(4-(tert-Butyl)phenyl)-N-(2-(tert-butylamino)-2-oxo-1-(pyridin-3-yl)ethyl)-3-methyloxirane-2-carboxamide] | 5.32 ± 0.64 µM |  | 
6 | CC(C)(C)NC(=O)C(c1cccnc1)N(C(=O)C1CO1)c1ccc(C(C)(C)C)cc1 [(R, S)- and (S, R)-38, N-(4-(tert-Butyl)phenyl)-N-(2-(tert-butylamino)-2-oxo-1-(pyridin-3-yl)ethyl)oxirane-2-carboxamide] | 1.2 µM and 1.24 µM |  | 
7 | CC(C)(C)c1ccc(N(C(=O)C2CO2)C(C(=O)NCc2ccccc2)c2cccnc2)cc1 [(R, S)- and (S, R)-42, N-(2-(Benzylamino)-2-oxo-1-(pyridin-3-yl)ethyl)-N-(4-(tert-butyl)phenyl)oxirane-2-carboxamide] | 1.6 ± 0.32 µM |  | 
8 | CC1OC1C(=O)N(c1ccc(C(C)(C)C)cc1)C(C(=O)NC(C)(C)C)c1cccnc1 [(R, S, R)- and (S, R, S)-39, N-(4-(tert-Butyl)phenyl)-N-(2-(tert-butylamino)-2-oxo-1-(pyridin-3-yl)ethyl)-3-methyloxirane-2-carboxamide] | 4.33 ± 0.32 µM |  | 
9 | O=C(NCc1ccccc1)C(c1cccnc1)N(C(=O)c1ccco1)c1ccc(-c2ccccc2)cc1 (stereo not shown) [Compound 1, N-([1,1’-Biphenyl]-4-yl)-N-(2-(benzylamino)-2-oxo-1-(pyridin-3-yl)ethyl)furan-2-carboxamide] | 0.74 ± 0.07 µM |  | 
10 | O=C(NCc1ccccc1)C(c1cccnc1)N(C(=O)c1ccco1)c1ccc(C2CO2)cc1 (stereo not shown) [Compound 2, N-(2-(Benzylamino)-2-oxo-1-(pyridin-3-yl)ethyl)-N-(4-(oxiran-2-yl)phenyl)furan-2-carboxamide] |  |  | 18
11 | C=Cc1ccc(N(C(=O)c2ccco2)C(C(=O)NCc2ccccc2)c2cccnc2)cc1 (stereo not shown) [Compound 3, N-(2-(Benzylamino)-2-oxo-1-(pyridin-3-yl)ethyl)-N-(4-vinylphenyl)furan-2-carboxamide] |  |  | 26
12 | CC(C)(C)NC(=O)C(c1cccnc1)N(C(=O)c1ccco1)c1ccc(CC2CO2)cc1 (stereo not shown) [Compound 4, N-(2-(tert-Butylamino)-2-oxo-1-(pyridin-3-yl)ethyl)-N-(4-(oxiran-2-ylmethyl)phenyl)furan-2-carboxamide] |  |  | 10
13 | O=C(CCl)Nc1ccc(N(C(=O)c2ccco2)C(C(=O)NCc2ccccc2)c2cccnc2)cc1 (stereo not shown) [Compound 5, N-(2-(Benzylamino)-2-oxo-1-(pyridin-3-yl)ethyl)-N-(4-(2-chloroacetamido)phenyl)furan-2-carboxamide] | ~20 µM |  | 47
